Data published in patent publication US20160106102A1, “KNOWN AND NEW HETEROCYCLIC COMPOUNDS AS PEST CONTROL AGENTS” (BAYER CROPSCIENCE AKTIENGESELLSCHAFT, priority 2013, published 2016).

Assay: log P determination by LC-MS in the acidic range
Assay type: physicochemical
Details: LC-MS in the acidic range
From the text: The LC-MS determination in the acidic range is effected at pH 2.7 using 0.1% aqueous formic acid and acetonitrile (contains 0.1% formic acid) as eluents, linear gradient from 10% acetonitrile to 95% acetonitrile. Alternatively, the determination is effected in the acidic range at pH 2.3 using 0.1% aqueous phosphoric acid and acetonitrile as eluents; linear gradient from 10% acetonitrile to 95% acetonitrile.

Row | log P (acid) | Compound
1 | 0.06 | Cn1nc(NC(=O)c2cccnc2)c(C#N)c1[S+](C)[O-] (stereo not shown) [Compound I-1-141]
2 | 0.09 | Cc1cc(NC(=O)c2cccnc2)nn1CC(=O)O [Compound I-1-115]
3 | 1.92 | Cc1cc(NC(=O)c2cccnc2)nn1C(=O)c1cccc(Cl)c1 [Compound I-1-127]
4 | 1.1 | Cc1cnn(Cn2nc(NC(=O)c3ccnnc3)cc2C)c1 [Compound I-1-256]
5 | 2.19 | Cc1cc(NC(=O)c2cccnc2)nn1-c1ccccn1 [Compound I-1-230]
6 | 0.58 | O=C(Nc1nn(Cc2ncccn2)cc1Cl)c1cccnc1 [Compound I-1-137]
7 | 1.25 | CSc1c(Cl)c(NC(=O)c2cccnc2)nn1C [Compound I-1-201]
8 | 1.73 | Cc1ccc(C(=O)Nc2cc(C)n(Cc3ccccc3F)n2)cn1 [Compound I-1-102]
9 | 2.57 | Cc1cc(N(Cc2ccc3nsnc3c2)C(=O)c2cccnc2)nn1Cc1ccc2nsnc2c1 [Compound I-1-343]
10 | 2.02 | Cc1ccc(-n2nc(NC(=O)c3cccnc3)cc2C)cc1 [Compound I-1-193]
11 | 1.13 | Cn1nc(NC(=O)c2cccnc2)c(Br)c1OC(F)F [Compound I-1-47]
12 | 1.51 | Cn1nc(NC(=O)c2cncc(F)c2)cc1C(F)F [Compound I-1-222]
13 | 3.23 | Cc1cc(NC(=O)c2cnc(Cl)c(Cl)c2)nn1Cc1ccc(F)cc1 [Compound I-1-97]
14 | 2.51 | COc1ccc(C(=O)Nc2cc(C)n(Cc3cccc(F)c3)n2)cn1 [Compound I-1-94]
15 | 1.16 | O=C(Nc1ccn(-c2nccs2)n1)c1cccnc1 [Compound I-1-273]
16 | 2.59 | Cc1cc(NC(=O)c2cccnc2)nn1-c1ccc(Cl)c(Cl)c1 [Compound I-1-206]
17 | 1.5 | COc1cc(OC)nc(Cn2nc(NC(=O)c3ccnnc3)cc2C)n1 [Compound I-1-252]
18 | 2.52 | COc1ccc(C(=O)Nc2cc(C)n(Cc3ccccc3F)n2)cn1 [Compound I-1-105]
19 | 2.33 | Cc1nn(-c2ccccc2)nc1Cn1nc(NC(=O)c2cccnc2)cc1C [Compound I-1-303]
20 | 1.17 | COc1nn(Cn2nc(NC(=O)c3ccnnc3)cc2C)c(=O)n1C1CC1 [Compound I-1-152]
21 | 1.33 | Cc1cc(NC(=O)c2ccnnc2)nn1Cn1nc(C2CC2)n(C2CC2)c1=O [Compound I-1-150]

Same assay, conditions: Table 2, compounds of the formula (I-2); acidic range pH 2.7 or pH 2.3

Row | log P (acid) | Compound
22 | 0.98 | O=C(Nc1ncn(-c2ccccc2)n1)c1cccnc1 [Compound I-2-5]
23 | 1.41 | CCOc1nc(OCC)nc(-n2cnc(NC(=O)c3cccnc3)n2)n1 [Compound I-2-10]
24 | 0.47 | CN(C)C(=O)n1cnc(NC(=O)c2cccnc2)n1 [Compound I-2-9]
25 | 0.29 | CCCn1cnc(NC(=O)c2cccnc2)n1 [Compound I-2-21]
26 | 0.44 | Cc1nc(NC(=O)c2cccnc2)nn1C(C)C [Compound I-2-20]
27 | 1.39 | O=C(Nc1ncn(Cc2c(Cl)cccc2Cl)n1)c1cccnc1 [Compound I-2-8]

Same assay, conditions: Table 3; HPLC on reversed-phase column (C 18), 55° C., acidic range (pH 2.7 or pH 2.3)

Row | log P (acid) | Compound
28 | 2.04 | O=C(Nc1nn(-c2ccccc2Cl)nc1Cl)c1cccnc1 [Compound I-3-13]
29 | 2.44 | O=C(Nc1nn(-c2ccccc2)nc1C(F)(F)F)c1cccnc1 [Compound I-3-12]
30 | 1.82 | Cc1nn(-c2ccccc2)nc1NC(=O)c1cccnc1 [Compound I-3-11]
31 | 2.09 | O=C(Nc1nn(-c2ccccc2)nc1Br)c1cccnc1 [Compound I-3-3]
32 | 2.93 | O=C(Nc1nn(-c2ccc(Cl)cc2)nc1C(F)(F)F)c1cccnc1 [Compound I-3-20]
33 | 1.67 | O=C(Nc1cnn(-c2c(F)cccc2F)n1)c1cccnc1 [Compound I-3-24]
34 | 2.58 | Cc1nn(-c2cccc(C(F)(F)F)c2)nc1NC(=O)c1cccnc1 [Compound I-3-18]
35 | 1.71 | Cc1nn(-c2ccccc2Cl)nc1NC(=O)c1cccnc1 [Compound I-3-23]
36 | 2.24 | Cc1nn(-c2ccc(Cl)cc2Cl)nc1NC(=O)c1cccnc1 [Compound I-3-19]
37 | 1.51 | O=C(Nc1nn(-c2ncccc2Cl)nc1Cl)c1cccnc1 [Compound I-3-21]

Same assay, conditions: Table 4; HPLC on reversed-phase column (C 18), 55° C., acidic range (pH 2.7 or pH 2.3)

Row | log P (acid) | Compound
38 | 1.35 | COc1cc(OC)nc(-n2nnc(NC(=O)c3cccnc3)n2)n1 [Compound I-4-4]
39 | 1.71 | O=C(Cn1nnc(NC(=O)c2cccnc2)n1)NCc1cccc2ccccc12 [Compound I-4-7]
40 | 0.71 | CCOC(=O)Cn1nnc(NC(=O)c2cccnc2)n1 [Compound I-4-5]
41 | 0.76 | CCCn1nnc(NC(=O)c2cccnc2)n1 [Compound I-4-9]
42 | 1.38 | O=C(Nc1nnn(Cc2ccccc2)n1)c1cccnc1 [Compound I-4-10]

Same assay, conditions: amines of the formula (II-1); acidic range pH 2.7 (0.1% formic acid/acetonitrile) or pH 2.3 (0.1% phosphoric acid/acetonitrile)

Row | log P (acid) | Compound
43 | 1.51 | Cc1cc(N)nn1Cn1ccc(C(F)(F)F)n1 [II-1-42]
44 | 1.11 | CCc1cc(N)nn1Cc1ccc(Cl)nc1 [II-1-19]
45 | 0.92 | Cc1c(Br)c(N)nn1Cc1ncccn1 [II-1-34]
46 | 0.64 | Cc1cc(N)nn1C(C)(C)C#N [II-1-37]
47 | <−0.23 | Cc1cc(N)nn1Cc1cccnc1 [II-1-28]
48 | 1.12 | Cc1cc(N)nn1CC1CC1(Cl)Cl (stereo not shown) [II-1-53]
49 | 0.02 | Cc1cc(N)nn1C(C)C#N (stereo not shown) [II-1-64]
50 | 1.13 | Cc1cc(N)nn1CC=C(Cl)Cl [II-1-56]
51 | 0.6 | Cc1cc(N)nn1Cc1ncccc1Cl [II-1-24]
52 | 0.45 | Cc1cc(N)nn1Cc1ccncc1 [II-1-18]
53 | 0.19 | Cc1cc(N)nn1Cc1nccs1 [II-1-10]
54 | 0.46 | C#CCn1nc(N)cc1CC [II-1-17]
55 | 1.39 | Cc1cc(N)nn1CC(=O)Cc1ccccc1Cl [II-1-58]
56 | <−0.23 | Cc1cc(N)nn1Cn1ccnn1 [II-1-45]
57 | 0.47 | Cc1cc(N)nn1C(F)F [II-1-27]
58 | 0.8 | Cc1cc(N)nn1-c1cnccn1 [II-1-6]
59 | 0.72 | COc1nn(Cn2nc(N)cc2C)c(=O)n1C1CC1 [II-1-47]
60 | 0.81 | COc1cc(OC)nc(Cn2nc(N)cc2C)n1 [II-1-12]

Same assay, conditions: pH 2.7, LC-MS in the acidic range; read-out: log P (acid)

Row | chromatographic logP | Compound
61 | 2.64 | O=C(Nc1ccn(Cc2ncc(C(F)(F)F)cc2Cl)n1)c1ccc(Cl)nc1 [Compound I-1-118, 6-Chloro-N-(1-{[3-chloro-5-(trifluoromethyl)pyridin-2-yl]methyl}-1H-pyrazol-3-yl)nicotinamide]
62 | 1.65 | Cc1cc(NC(=O)c2cccnc2)nn1C(=O)C1CC1 [Compound I-1-121, N-[1-(Cyclopropylcarbonyl)-5-methyl-1H-pyrazol-3-yl]nicotinamide]

Same assay, conditions: pH 2.7, values given in the synthesis examples and NMR lists; read-out: HPLC-MS: log P

Row | chromatographic logP | Compound
63 | 1.34 | Cc1c[nH]nc1N1C(=O)c2ccccc2C1=O [2-(4-Methyl-1H-pyrazol-3-yl)-1H-isoindole-1,3(2H)-dione]
64 | 1.83 | O=C1c2ccccc2C(=O)N1c1cc(Br)[nH]n1 [2-(5-Bromo-1H-pyrazol-3-yl)-1H-isoindole-1,3(2H)-dione]
65 | 1.58 | Cc1cn(Cc2ncccn2)nc1N1C(=O)c2ccccc2C1=O [2-[4-Methyl-1-(pyrimidin-2-ylmethyl)-1H-pyrazol-3-yl]-1H-isoindole-1,3(2H)-dione]
66 | 2.64 | O=C(Nc1ccn(Cc2ncc(C(F)(F)F)cc2Cl)n1)c1ccc(Cl)nc1 [Compound I-1-118, 6-Chloro-N-(1-{[3-chloro-5-(trifluoromethyl)pyridin-2-yl]methyl}-1H-pyrazol-3-yl)nicotinamide]
67 | 1.65 | Cc1cc(NC(=O)c2cccnc2)nn1C(=O)C1CC1 [Compound I-1-121, N-[1-(Cyclopropylcarbonyl)-5-methyl-1H-pyrazol-3-yl]nicotinamide]
